Experimental data published in the NIST ThermoML archive (doi:10.1021/je900387e).
Numbers after ± are expanded uncertainties.

Assay: xn = mol fraction of the nth substance listed
Conditions: Liquid, Pycnometric method

CCCCCl [1-chlorobutane] + O=C=O
Conditions	mass density [kg/m3]
322.7 K, 8980 kPa, x1 = 0.0243	377 ± 4
322.7 K, 8990 kPa, x1 = 0.0744	690 ± 4
322.7 K, 9050 kPa, x1 = 0.0243	387 ± 4
322.7 K, 9110 kPa, x1 = 0.0243	397 ± 4
322.7 K, 9120 kPa, x1 = 0.0981	754 ± 4
322.7 K, 9140 kPa, x1 = 0.0744	698 ± 4
322.7 K, 9170 kPa, x1 = 0.0243	407 ± 4
322.7 K, 9240 kPa, x1 = 0.0243	418 ± 4
322.7 K, 9280 kPa, x1 = 0.1488	802 ± 4
322.7 K, 9290 kPa, x1 = 0.0744	705 ± 4
322.7 K, 9300 kPa, x1 = 0.0981	759 ± 4
322.7 K, 9320 kPa, x1 = 0.0243	430 ± 4
322.7 K, 9390 kPa, x1 = 0.0243	443 ± 4
322.7 K, 9470 kPa, x1 = 0.0243	456 ± 4
322.7 K, 9470 kPa, x1 = 0.0744	713 ± 4
322.7 K, 9500 kPa, x1 = 0.0981	764 ± 4
322.7 K, 9560 kPa, x1 = 0.0243	470 ± 4
322.7 K, 9600 kPa, x1 = 0.1488	807 ± 4
322.7 K, 9630 kPa, x1 = 0.0243	482 ± 4
322.7 K, 9700 kPa, x1 = 0.0243	494 ± 4
322.7 K, 9700 kPa, x1 = 0.0744	721 ± 4
322.7 K, 9720 kPa, x1 = 0.0981	769 ± 4
322.7 K, 9740 kPa, x1 = 0.0243	501 ± 4
322.7 K, 9790 kPa, x1 = 0.0243	507 ± 4
322.7 K, 9810 kPa, x1 = 0.0243	510 ± 4
322.7 K, 9940 kPa, x1 = 0.0744	729 ± 4
322.7 K, 9950 kPa, x1 = 0.1488	811 ± 4
322.7 K, 10080 kPa, x1 = 0.0981	777 ± 4
322.7 K, 10210 kPa, x1 = 0.0744	738 ± 4
322.7 K, 10310 kPa, x1 = 0.1488	815 ± 4
322.7 K, 10480 kPa, x1 = 0.0981	785 ± 4
322.7 K, 10520 kPa, x1 = 0.0744	746 ± 4
322.7 K, 10730 kPa, x1 = 0.1488	820 ± 4
322.7 K, 10870 kPa, x1 = 0.0744	755 ± 4
322.7 K, 10920 kPa, x1 = 0.0981	792 ± 4
322.7 K, 11110 kPa, x1 = 0.1488	823 ± 4
322.7 K, 11230 kPa, x1 = 0.0744	764 ± 4
322.7 K, 11440 kPa, x1 = 0.0981	802 ± 4
322.7 K, 11540 kPa, x1 = 0.1488	828 ± 4
322.7 K, 11680 kPa, x1 = 0.0744	773 ± 4
322.7 K, 12000 kPa, x1 = 0.0981	810 ± 4
322.7 K, 12020 kPa, x1 = 0.1488	832 ± 4
322.7 K, 12170 kPa, x1 = 0.0744	782 ± 4
322.7 K, 12270 kPa, x1 = 0.1488	835 ± 4
322.7 K, 12520 kPa, x1 = 0.1488	837 ± 4
322.7 K, 12600 kPa, x1 = 0.0981	818 ± 4
322.7 K, 12720 kPa, x1 = 0.0744	792 ± 4
322.7 K, 12780 kPa, x1 = 0.1488	839 ± 4
322.7 K, 13030 kPa, x1 = 0.0981	824 ± 4
322.7 K, 13270 kPa, x1 = 0.1488	844 ± 4
322.7 K, 13320 kPa, x1 = 0.0744	802 ± 4
322.7 K, 13530 kPa, x1 = 0.0981	830 ± 4
322.7 K, 13570 kPa, x1 = 0.1488	846 ± 4
322.7 K, 13850 kPa, x1 = 0.1488	849 ± 4
322.7 K, 14020 kPa, x1 = 0.0744	812 ± 4
322.7 K, 14030 kPa, x1 = 0.0981	836 ± 4
322.7 K, 14170 kPa, x1 = 0.1488	851 ± 4
322.7 K, 14470 kPa, x1 = 0.1488	853 ± 4
322.7 K, 14590 kPa, x1 = 0.0981	843 ± 4
322.7 K, 14600 kPa, x1 = 0.0744	820 ± 4
322.7 K, 14740 kPa, x1 = 0.1488	856 ± 4
322.7 K, 14960 kPa, x1 = 0.0744	824 ± 4
322.7 K, 15170 kPa, x1 = 0.0981	849 ± 4
322.7 K, 15190 kPa, x1 = 0.0744	828 ± 4
324 K, 9110 kPa, x1 = 0.0483	519 ± 4
324 K, 9140 kPa, x1 = 0.0483	527 ± 4
324 K, 9190 kPa, x1 = 0.0483	537 ± 4
324 K, 9250 kPa, x1 = 0.0483	546 ± 4
324 K, 9310 kPa, x1 = 0.0483	556 ± 4
324 K, 9370 kPa, x1 = 0.0483	566 ± 4
324 K, 9450 kPa, x1 = 0.0483	576 ± 4
324 K, 9540 kPa, x1 = 0.0483	587 ± 4
324 K, 9630 kPa, x1 = 0.0483	599 ± 4
324 K, 9750 kPa, x1 = 0.0483	611 ± 4
324 K, 9850 kPa, x1 = 0.0483	620 ± 4
324 K, 10010 kPa, x1 = 0.0483	633 ± 4
324 K, 10200 kPa, x1 = 0.0483	646 ± 4
324 K, 10420 kPa, x1 = 0.0483	660 ± 4
324 K, 10690 kPa, x1 = 0.0483	674 ± 4
324 K, 11030 kPa, x1 = 0.0483	689 ± 4
324 K, 11440 kPa, x1 = 0.0483	705 ± 4
324 K, 11960 kPa, x1 = 0.0483	721 ± 4
324 K, 12550 kPa, x1 = 0.0483	738 ± 4
324 K, 13030 kPa, x1 = 0.0483	749 ± 4
324 K, 13450 kPa, x1 = 0.0483	758 ± 4
324 K, 13950 kPa, x1 = 0.0483	768 ± 4
324 K, 14450 kPa, x1 = 0.0483	778 ± 4
324 K, 15020 kPa, x1 = 0.0483	788 ± 4
327.6 K, 8120 kPa, x1 = 0.0243	244 ± 4
327.6 K, 8180 kPa, x1 = 0.0243	249 ± 4
327.6 K, 8250 kPa, x1 = 0.0243	253 ± 4
327.6 K, 8320 kPa, x1 = 0.0243	258 ± 4
327.6 K, 8390 kPa, x1 = 0.0243	263 ± 4
327.6 K, 8460 kPa, x1 = 0.0243	268 ± 4
327.6 K, 8480 kPa, x1 = 0.1488	758 ± 4
327.6 K, 8520 kPa, x1 = 0.0243	274 ± 4
327.6 K, 8590 kPa, x1 = 0.0243	279 ± 4
327.6 K, 8670 kPa, x1 = 0.0243	285 ± 4
327.6 K, 8710 kPa, x1 = 0.1488	762 ± 4
327.6 K, 8750 kPa, x1 = 0.0243	291 ± 4
327.6 K, 8820 kPa, x1 = 0.0243	298 ± 4
327.6 K, 8880 kPa, x1 = 0.0243	304 ± 4
327.6 K, 8920 kPa, x1 = 0.0981	692 ± 4
327.6 K, 8920 kPa, x1 = 0.1488	766 ± 4
327.6 K, 8950 kPa, x1 = 0.0243	311 ± 4
327.6 K, 9040 kPa, x1 = 0.0243	318 ± 4
327.6 K, 9050 kPa, x1 = 0.0981	698 ± 4
327.6 K, 9110 kPa, x1 = 0.0243	326 ± 4
327.6 K, 9140 kPa, x1 = 0.1488	770 ± 4
327.6 K, 9180 kPa, x1 = 0.0243	334 ± 4
327.6 K, 9200 kPa, x1 = 0.0981	704 ± 4
327.6 K, 9270 kPa, x1 = 0.0243	343 ± 4
327.6 K, 9350 kPa, x1 = 0.0243	352 ± 4
327.6 K, 9360 kPa, x1 = 0.0981	711 ± 4
327.6 K, 9370 kPa, x1 = 0.1488	774 ± 4
327.6 K, 9410 kPa, x1 = 0.0243	359 ± 4
327.6 K, 9410 kPa, x1 = 0.0483	469 ± 4
327.6 K, 9430 kPa, x1 = 0.0483	473 ± 4
327.6 K, 9460 kPa, x1 = 0.0243	364 ± 4
327.6 K, 9470 kPa, x1 = 0.0483	480 ± 4
327.6 K, 9520 kPa, x1 = 0.0483	487 ± 4
327.6 K, 9530 kPa, x1 = 0.0981	718 ± 4
327.6 K, 9570 kPa, x1 = 0.0483	494 ± 4
327.6 K, 9600 kPa, x1 = 0.1488	778 ± 4
327.6 K, 9620 kPa, x1 = 0.0483	502 ± 4
327.6 K, 9670 kPa, x1 = 0.0483	510 ± 4
327.6 K, 9730 kPa, x1 = 0.0483	518 ± 4
327.6 K, 9730 kPa, x1 = 0.0981	725 ± 4
327.6 K, 9790 kPa, x1 = 0.0483	526 ± 4
327.6 K, 9850 kPa, x1 = 0.1488	781 ± 4
327.6 K, 9860 kPa, x1 = 0.0483	535 ± 4
327.6 K, 9930 kPa, x1 = 0.0483	544 ± 4
327.6 K, 9940 kPa, x1 = 0.0981	731 ± 4
327.6 K, 10010 kPa, x1 = 0.0483	553 ± 4
327.6 K, 10090 kPa, x1 = 0.0483	562 ± 4
327.6 K, 10110 kPa, x1 = 0.1488	785 ± 4
327.6 K, 10190 kPa, x1 = 0.0483	572 ± 4
327.6 K, 10200 kPa, x1 = 0.0981	739 ± 4
327.6 K, 10290 kPa, x1 = 0.0483	582 ± 4
327.6 K, 10410 kPa, x1 = 0.0483	593 ± 4
327.6 K, 10410 kPa, x1 = 0.1488	790 ± 4
327.6 K, 10450 kPa, x1 = 0.0981	746 ± 4
327.6 K, 10540 kPa, x1 = 0.0483	604 ± 4
327.6 K, 10690 kPa, x1 = 0.0483	615 ± 4
327.6 K, 10720 kPa, x1 = 0.1488	794 ± 4
327.6 K, 10770 kPa, x1 = 0.0981	754 ± 4
327.6 K, 10810 kPa, x1 = 0.0483	623 ± 4
327.6 K, 10910 kPa, x1 = 0.0483	629 ± 4
327.6 K, 11000 kPa, x1 = 0.0483	635 ± 4
327.6 K, 11050 kPa, x1 = 0.1488	798 ± 4
327.6 K, 11060 kPa, x1 = 0.0483	639 ± 4
327.6 K, 11110 kPa, x1 = 0.0981	761 ± 4
327.6 K, 11140 kPa, x1 = 0.0483	644 ± 4
327.6 K, 11220 kPa, x1 = 0.0483	648 ± 4
327.6 K, 11380 kPa, x1 = 0.1488	802 ± 4
327.6 K, 11460 kPa, x1 = 0.0981	769 ± 4
327.6 K, 11770 kPa, x1 = 0.1488	806 ± 4
327.6 K, 11880 kPa, x1 = 0.0981	777 ± 4
327.6 K, 12150 kPa, x1 = 0.1488	811 ± 4
327.6 K, 12330 kPa, x1 = 0.0981	785 ± 4
327.6 K, 12530 kPa, x1 = 0.1488	815 ± 4
327.6 K, 12830 kPa, x1 = 0.0981	792 ± 4
327.6 K, 12950 kPa, x1 = 0.1488	819 ± 4
327.6 K, 13400 kPa, x1 = 0.1488	823 ± 4
327.6 K, 13410 kPa, x1 = 0.0981	802 ± 4
327.6 K, 13890 kPa, x1 = 0.1488	828 ± 4
327.6 K, 14220 kPa, x1 = 0.0981	813 ± 4
327.6 K, 14350 kPa, x1 = 0.1488	832 ± 4
327.6 K, 14900 kPa, x1 = 0.1488	837 ± 4
